Source: PMC4527739 (PLoS ONE, 2015)

Target: T1, yeast channel-forming VDAC isoform (YVDAC1) (Saccharomyces cerevisiae, UniProt P04840)
T1 construct: gene POR1; native protein from detergent (NP-40) extract of mitochondrial fraction; about 30 kDa; identified by LC/MS/MS against SGD ORF translations
T1 sequence (P04840 2-283): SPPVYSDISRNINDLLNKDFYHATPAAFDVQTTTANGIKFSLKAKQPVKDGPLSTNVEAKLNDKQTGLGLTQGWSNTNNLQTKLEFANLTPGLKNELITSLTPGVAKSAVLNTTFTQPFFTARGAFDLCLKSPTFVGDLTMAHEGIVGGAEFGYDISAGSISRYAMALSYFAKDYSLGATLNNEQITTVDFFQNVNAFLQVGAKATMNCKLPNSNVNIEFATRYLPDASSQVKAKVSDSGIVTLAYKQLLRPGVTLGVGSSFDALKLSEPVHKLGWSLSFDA
Format: biochemical

SMILES: COc1cc2c(cc1OC)OC(C)(C)C=C2 [Precocene II]
- affinity magnetic beads, elution and competition with free compound, SDS-PAGE, L: identification of YVDAC1 as the precocene II-binding protein in the yeast S. cerevisiae
